Laboratory results taken from US20230303510A1, “CYCLIZED ACETAMIDO DERIVATIVES AS DNA POLYMERASE THETA INHIBITORS” (Ideaya Biosciences, Inc., priority 2020, published 2023).

What was measured:
[1] = molecular target: T1, Pol theta (residues 1819-2590) (Homo sapiens, UniProt O75417); assay: PPi assay (inhibition of polymerase activity of Pol theta, PPiLite luminescence); assay type: biochemical; conditions: Pol theta 2.8 nM; luminescence kinetic mode 90 min
T1 construct: Pol theta polymerase domain (residues 1819-2590) at a final concentration of 4 nM
T1 sequence (O75417 1819-2590): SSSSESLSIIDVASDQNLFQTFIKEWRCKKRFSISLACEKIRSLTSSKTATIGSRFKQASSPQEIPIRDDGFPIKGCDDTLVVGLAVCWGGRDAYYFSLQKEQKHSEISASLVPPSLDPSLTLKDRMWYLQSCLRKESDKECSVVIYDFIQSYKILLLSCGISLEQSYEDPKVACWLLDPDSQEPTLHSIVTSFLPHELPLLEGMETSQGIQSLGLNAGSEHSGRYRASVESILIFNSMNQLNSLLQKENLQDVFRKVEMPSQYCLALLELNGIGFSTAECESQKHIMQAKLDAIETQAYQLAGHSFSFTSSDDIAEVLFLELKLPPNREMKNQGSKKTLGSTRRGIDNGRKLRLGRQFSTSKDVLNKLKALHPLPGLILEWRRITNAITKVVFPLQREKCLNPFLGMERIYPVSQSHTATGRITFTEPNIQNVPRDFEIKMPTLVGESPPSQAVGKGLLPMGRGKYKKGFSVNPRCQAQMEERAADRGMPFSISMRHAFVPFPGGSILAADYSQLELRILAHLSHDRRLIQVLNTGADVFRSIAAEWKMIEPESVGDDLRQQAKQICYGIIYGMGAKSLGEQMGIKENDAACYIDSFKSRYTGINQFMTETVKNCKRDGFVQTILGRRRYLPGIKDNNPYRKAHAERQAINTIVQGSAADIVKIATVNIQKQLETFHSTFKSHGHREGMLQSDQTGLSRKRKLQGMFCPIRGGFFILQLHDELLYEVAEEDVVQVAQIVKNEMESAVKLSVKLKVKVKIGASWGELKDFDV
Procedure: The ability of the compounds of Formula (I) or Formula (II) to inhibit polymerase activity of Pol theta was determined using the PPi assay as set forth below.
A mixture of template DNA strand (SEQ ID NO:4: 5′ ATTACTGACCTCATACTTCTGCCCTTCCATGTTCTGTGCCCTCCTTCC 3′) and primer DNA strand (SEQ ID NO:5: 5′ GGA AGG AGG GCA CAG AAC 3′) was annealed in 10 mM Tris-HCl pH 8.0, […] buffer to form the primed DNA substrate. A 10-point dilution series of compounds were used in a 384 well format for the inhibition assay. Pol theta (residues 1819-2590) (2.8 nM) in assay buffer (20 mM Tris-HCl pH 7.8, 50 mM KCl, 10 mM MgCl2, 1 mM DTT, 0.01% BSA, 0.01% Tween-20) was transferred to the test wells (10 uL), except for the low control wells. The plate was then incubated at room temperature for 15 mins. An equal volume (10 μL) of dNTP substrate (40 μM) and primed DNA substrate (800 nM) in assay buffer was added to all the test wells. 20 μL of PPi detection reagent (PPiLite inorganic pyrophosphate assay, Lonzo) was then added to all test wells. The plate was then centrifuged at 1000 rpm for 1 min. The reaction was monitored in a Tecan M1000 Pro plate reader in luminescence kinetic mode for 90 min. The high control (DMSO with enzyme) with high luminescence represents no inhibition of the polymerase reaction while the low control (DMSO with buffer) with low luminescence represents full inhibition of the polymerase activity. Slope of the reaction progress curves were used to calculate the rate of polymerization. The rates were used to determine the percent inhibition using a four-parameter inhibition model to generate IC50, Hill slope, maximum inhibition, and minimum inhibition.

[2] = molecular target: T2, Pol theta polymerase domain (residues 1819-2590) (Homo sapiens, UniProt O75417); assay: Primer extension assay (inhibition of polymerase activity of Pol theta, molecular beacon fluorescence); assay type: biochemical; conditions: Pol theta polymerase domain 4 nM; fluorescence change over 30 min
T2 construct: Pol theta polymerase domain (residues 1819-2590) at a final concentration of 4 nM
T2 sequence (O75417 1819-2590): T1 sequence (O75417 1819-2590)
Procedure: The ability of the compounds of Formula (I) or Formula (II) to inhibit polymerase activity of Pol theta was determined using the primer extension assay as set forth below.
A mixture of 20 uL of Pol theta polymerase domain (residues 1819-2590) at a final concentration of 4 nM in assay buffer (20 m M TRIS, pH 7.80, 50 mM KCl, 10 mM MgCl2, 1 mM DTT, 0.01% BSA, 0.01% Tween20) was added to test compounds (11-point dilution series of test compounds) except the low control wells without test compounds. The above enzyme and test compound inhibitor mixture was then incubated at room temperature for 15 min. An equal volume (20 μl) of dNTP substrate mixture (48 μM) and primed molecular beacon DNA (obtained by annealing template SEQ ID NO:2: (5′-CCTTCCTCCCGTGTCTTG-TACCTTCCCGTCA-GGAGGAAGG-3′) with 5′-TAMRA and 3′-BHQ and primer DNA (SEQ ID NO:3; 5′-GACGGGAAGG-3′) in 10 mM Tris-HCl pH 8.0, 100 mM NaCl buffer) (96 nM) in assay buffer was added to all the test wells. The inhibition activity was measured by monitoring the fluorescence change over 30 min at 535 nm upon excitation at 485 nm. The high control (DMSO with enzyme) with high fluorescence intensity represents no inhibition of polymerase reaction while the low control (DMSO with buffer) with low fluorescence intensity represents full inhibition of polymerase activity. Slope of the reaction progress curves were used to calculate the rate of polymerization. The rates were used to determine the percent inhibition using a four-parameter inhibition model to generate IC50, Hill slope and max inhibition.

Structure (SMILES) | IC50 [1] | IC50 [2]
CN(C(=O)C1COCCN1c1cc(C(F)(F)F)cc(C(F)(F)F)n1)c1ccc(F)cc1 (centres unmarked) [1.006, 4-(4,6-bis(trifluoromethyl)pyridin-2-yl)-N-(4-fluorophenyl)-N-methylmorpholine-3-carboxamide] | 1000 to 10000 nM | ≤ 200 nM
CN(C(=O)C1CCCN1c1nc(C(F)(F)F)cc(C(F)(F)F)c1C#N)c1ccc(F)cc1 (centres unmarked) [1.024, 1-(3-cyano-4,6-bis(trifluoromethyl)pyridin-2-yl)-N-(4-fluorophenyl)-N-methylpyrrolidine-2-carboxamide] | ≤ 200 nM | ≤ 200 nM
CN(C(=O)[C@@H]1CCCN1c1cc(C(F)(F)F)cc(C(F)(F)F)n1)c1ccc(F)cc1 [1.003, (S)-1-(4,6-bis(trifluoromethyl)pyridin-2-yl)-N-(4-fluorophenyl)-N-methylpyrrolidine-2-carboxamide] | ≤ 200 nM | ≤ 200 nM
CC(=O)N[C@@H]1C[C@@H](C(=O)N(C)c2ccc(F)cc2)N(c2cc(C(F)(F)F)cc(C(F)(F)F)n2)C1 [1.022, (2S,4R)-4-acetamido-1-(4,6-bis(trifluoromethyl)pyridin-2-yl)-N-(4-fluorophenyl)-N-methylpyrrolidine-2-carboxamide] | ≤ 200 nM | ≤ 200 nM
CC(=O)N[C@H]1C[C@@H](C(=O)N(C)c2ccc(F)cc2)N(c2cc(C(F)(F)F)cc(C(F)(F)F)n2)C1 [1.020, (2S,4S)-4-acetamido-1-(4,6-bis(trifluoromethyl)pyridin-2-yl)-N-(4-fluorophenyl)-N-methylpyrrolidine-2-carboxamide] | ≤ 200 nM | ≤ 200 nM
CN(C(=O)[C@H]1CCCN1c1cc(C(F)(F)F)cc(C(F)(F)F)n1)c1ccc(F)cc1 [1.002, (R)-1-(4,6-bis(trifluoromethyl)pyridin-2-yl)-N-(4-fluorophenyl)-N-methylpyrrolidine-2-carboxamide] | 1000 to 10000 nM | 1000 to 10000 nM
CN(C(=O)[C@@H]1[C@@H](O)CCN1c1cc(C(F)(F)F)cc(C(F)(F)F)n1)c1ccc(F)cc1 [1.019, (2S,3S)-1-(4,6-bis(trifluoromethyl)pyridin-2-yl)-N-(4-fluorophenyl)-3-hydroxy-N-methylpyrrolidine-2-carboxamide] | ≤ 200 nM | ≤ 200 nM
